Data published in ChEMBL document CHEMBL1909046, “DrugMatrix in vitro pharmacology data”.

What was measured:
[1] = DRUGMATRIX: Phorbol Ester radioligand binding (ligand: [3H] PDBu); type: cell membranes, Mus musculus, ICR, Brain, Membrane; details: Not Active = under 50% inhibition at 10 µM
[2] = target: Adenosine receptor A2a (Homo sapiens, UniProt P29274); experiment: DRUGMATRIX: Adenosine A2A radioligand binding (ligand: […]); type: cell membranes, HEK293, Membrane; details: hek293; Not Active = under 50% inhibition at 10 µM
Chain of Adenosine receptor A2a (P29274 whole entry): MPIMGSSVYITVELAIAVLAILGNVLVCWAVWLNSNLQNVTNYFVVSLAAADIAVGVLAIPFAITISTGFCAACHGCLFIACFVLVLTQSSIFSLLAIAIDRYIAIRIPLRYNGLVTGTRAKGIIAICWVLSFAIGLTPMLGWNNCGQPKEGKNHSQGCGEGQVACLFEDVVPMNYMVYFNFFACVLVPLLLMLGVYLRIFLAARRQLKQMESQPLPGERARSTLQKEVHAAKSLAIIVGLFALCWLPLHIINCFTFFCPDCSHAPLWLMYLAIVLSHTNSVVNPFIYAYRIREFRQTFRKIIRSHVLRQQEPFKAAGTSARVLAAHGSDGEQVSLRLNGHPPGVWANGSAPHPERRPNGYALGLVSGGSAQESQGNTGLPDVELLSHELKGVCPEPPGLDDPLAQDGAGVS

[3] = target: Vasopressin V1a receptor (Homo sapiens, UniProt P37288); type: cell membranes, Membrane; details: hek293; note: in other assays of this panel Not Active means under 50% inhibition at 10 µM
Chain of Vasopressin V1a receptor (P37288 whole entry): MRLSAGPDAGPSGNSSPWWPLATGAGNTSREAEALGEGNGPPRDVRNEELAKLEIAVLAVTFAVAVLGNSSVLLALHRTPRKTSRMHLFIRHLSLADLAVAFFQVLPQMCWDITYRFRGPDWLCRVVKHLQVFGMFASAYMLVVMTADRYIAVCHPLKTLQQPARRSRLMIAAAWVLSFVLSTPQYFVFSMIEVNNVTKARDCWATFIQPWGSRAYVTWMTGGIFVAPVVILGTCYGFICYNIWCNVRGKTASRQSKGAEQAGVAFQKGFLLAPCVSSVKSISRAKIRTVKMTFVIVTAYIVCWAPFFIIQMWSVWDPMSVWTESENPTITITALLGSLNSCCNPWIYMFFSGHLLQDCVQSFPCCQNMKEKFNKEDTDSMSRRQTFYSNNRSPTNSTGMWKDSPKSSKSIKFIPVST

[4] = target: T1, Calcitonin receptor (Homo sapiens, UniProt P30988); type: cell membranes, Membrane; details: t47d; note: in other assays of this panel Not Active means under 50% inhibition at 10 µM
T1 sequence (P30988 whole entry): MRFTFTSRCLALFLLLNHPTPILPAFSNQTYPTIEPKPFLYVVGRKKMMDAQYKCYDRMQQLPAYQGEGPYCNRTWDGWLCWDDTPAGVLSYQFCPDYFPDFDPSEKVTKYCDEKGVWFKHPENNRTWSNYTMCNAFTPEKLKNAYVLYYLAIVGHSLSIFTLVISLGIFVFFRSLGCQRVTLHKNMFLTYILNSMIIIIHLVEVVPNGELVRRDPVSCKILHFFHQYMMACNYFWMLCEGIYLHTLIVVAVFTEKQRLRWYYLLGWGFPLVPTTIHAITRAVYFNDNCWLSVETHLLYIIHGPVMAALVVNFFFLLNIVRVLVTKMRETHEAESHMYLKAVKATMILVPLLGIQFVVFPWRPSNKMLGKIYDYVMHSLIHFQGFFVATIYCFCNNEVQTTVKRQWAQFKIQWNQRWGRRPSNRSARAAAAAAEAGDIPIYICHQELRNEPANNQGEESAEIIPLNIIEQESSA

[5] = target: Voltage-gated inwardly rectifying potassium channel KCNH2 (Homo sapiens, UniProt Q12809); details: hek293; note: in other assays of this panel Not Active means under 50% inhibition at 10 µM
Chain of Voltage-gated inwardly rectifying potassium channel KCNH2 (Q12809 whole entry): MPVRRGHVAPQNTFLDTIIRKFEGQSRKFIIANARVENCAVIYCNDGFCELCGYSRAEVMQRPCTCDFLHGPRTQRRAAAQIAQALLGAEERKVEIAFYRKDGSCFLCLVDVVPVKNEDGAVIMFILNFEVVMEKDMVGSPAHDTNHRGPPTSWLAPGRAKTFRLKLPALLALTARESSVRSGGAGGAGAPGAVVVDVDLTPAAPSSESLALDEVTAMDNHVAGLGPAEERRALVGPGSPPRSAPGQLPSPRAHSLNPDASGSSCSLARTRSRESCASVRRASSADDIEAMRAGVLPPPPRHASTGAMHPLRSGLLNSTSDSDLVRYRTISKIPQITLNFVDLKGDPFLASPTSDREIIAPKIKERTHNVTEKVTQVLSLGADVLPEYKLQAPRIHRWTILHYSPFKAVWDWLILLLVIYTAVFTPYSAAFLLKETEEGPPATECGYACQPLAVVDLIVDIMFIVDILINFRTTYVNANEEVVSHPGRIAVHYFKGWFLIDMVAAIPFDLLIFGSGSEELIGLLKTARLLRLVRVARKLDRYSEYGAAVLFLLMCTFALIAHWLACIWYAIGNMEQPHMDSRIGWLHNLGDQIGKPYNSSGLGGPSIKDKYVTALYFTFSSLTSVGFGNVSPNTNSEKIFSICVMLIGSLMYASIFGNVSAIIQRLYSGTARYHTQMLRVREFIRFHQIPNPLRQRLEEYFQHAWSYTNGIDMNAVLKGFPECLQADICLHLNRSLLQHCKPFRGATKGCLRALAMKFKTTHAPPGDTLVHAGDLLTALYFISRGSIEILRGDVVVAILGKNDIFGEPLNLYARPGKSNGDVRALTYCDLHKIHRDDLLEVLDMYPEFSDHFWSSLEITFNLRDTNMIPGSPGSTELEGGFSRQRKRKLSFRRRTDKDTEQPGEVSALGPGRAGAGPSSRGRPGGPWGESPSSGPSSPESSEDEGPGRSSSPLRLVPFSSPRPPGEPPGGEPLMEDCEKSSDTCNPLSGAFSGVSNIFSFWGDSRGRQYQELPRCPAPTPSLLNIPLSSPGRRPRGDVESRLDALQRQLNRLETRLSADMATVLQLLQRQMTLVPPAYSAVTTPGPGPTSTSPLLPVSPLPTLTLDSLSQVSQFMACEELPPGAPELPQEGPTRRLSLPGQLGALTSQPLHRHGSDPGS

[6] = target: T2, 5-hydroxytryptamine receptor 1A (Rattus norvegicus, UniProt P19327); type: cell membranes, Membrane; details: cho-k1; note: in other assays of this panel Not Active means under 50% inhibition at 10 µM
T2 sequence (P19327 whole entry): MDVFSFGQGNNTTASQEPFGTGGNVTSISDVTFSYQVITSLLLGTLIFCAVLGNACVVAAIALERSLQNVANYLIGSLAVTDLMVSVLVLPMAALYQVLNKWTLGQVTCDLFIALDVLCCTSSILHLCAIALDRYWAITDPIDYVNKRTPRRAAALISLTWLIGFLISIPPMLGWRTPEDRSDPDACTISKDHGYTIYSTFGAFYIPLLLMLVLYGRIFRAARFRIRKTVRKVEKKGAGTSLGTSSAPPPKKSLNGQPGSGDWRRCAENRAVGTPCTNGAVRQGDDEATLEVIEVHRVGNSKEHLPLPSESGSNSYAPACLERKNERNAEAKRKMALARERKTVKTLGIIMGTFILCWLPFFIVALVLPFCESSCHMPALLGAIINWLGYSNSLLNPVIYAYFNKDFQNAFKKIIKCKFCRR

[7] = DRUGMATRIX: Atrial Natriuretic Factor (ANF) radioligand binding (ligand: [125I] ANF (rat)); type: cell membranes, Cavia porcellus, Dunkin-Hartley, Adrenal gland, Membrane; details: Not Active = under 50% inhibition at 10 µM
[8] = target: Nitric oxide synthase 1 (Rattus norvegicus, UniProt P29476); type: tissue-based, Cerebellum; note: in other assays of this panel Not Active means under 50% inhibition at 10 µM
Chain of Nitric oxide synthase 1 (P29476 whole entry): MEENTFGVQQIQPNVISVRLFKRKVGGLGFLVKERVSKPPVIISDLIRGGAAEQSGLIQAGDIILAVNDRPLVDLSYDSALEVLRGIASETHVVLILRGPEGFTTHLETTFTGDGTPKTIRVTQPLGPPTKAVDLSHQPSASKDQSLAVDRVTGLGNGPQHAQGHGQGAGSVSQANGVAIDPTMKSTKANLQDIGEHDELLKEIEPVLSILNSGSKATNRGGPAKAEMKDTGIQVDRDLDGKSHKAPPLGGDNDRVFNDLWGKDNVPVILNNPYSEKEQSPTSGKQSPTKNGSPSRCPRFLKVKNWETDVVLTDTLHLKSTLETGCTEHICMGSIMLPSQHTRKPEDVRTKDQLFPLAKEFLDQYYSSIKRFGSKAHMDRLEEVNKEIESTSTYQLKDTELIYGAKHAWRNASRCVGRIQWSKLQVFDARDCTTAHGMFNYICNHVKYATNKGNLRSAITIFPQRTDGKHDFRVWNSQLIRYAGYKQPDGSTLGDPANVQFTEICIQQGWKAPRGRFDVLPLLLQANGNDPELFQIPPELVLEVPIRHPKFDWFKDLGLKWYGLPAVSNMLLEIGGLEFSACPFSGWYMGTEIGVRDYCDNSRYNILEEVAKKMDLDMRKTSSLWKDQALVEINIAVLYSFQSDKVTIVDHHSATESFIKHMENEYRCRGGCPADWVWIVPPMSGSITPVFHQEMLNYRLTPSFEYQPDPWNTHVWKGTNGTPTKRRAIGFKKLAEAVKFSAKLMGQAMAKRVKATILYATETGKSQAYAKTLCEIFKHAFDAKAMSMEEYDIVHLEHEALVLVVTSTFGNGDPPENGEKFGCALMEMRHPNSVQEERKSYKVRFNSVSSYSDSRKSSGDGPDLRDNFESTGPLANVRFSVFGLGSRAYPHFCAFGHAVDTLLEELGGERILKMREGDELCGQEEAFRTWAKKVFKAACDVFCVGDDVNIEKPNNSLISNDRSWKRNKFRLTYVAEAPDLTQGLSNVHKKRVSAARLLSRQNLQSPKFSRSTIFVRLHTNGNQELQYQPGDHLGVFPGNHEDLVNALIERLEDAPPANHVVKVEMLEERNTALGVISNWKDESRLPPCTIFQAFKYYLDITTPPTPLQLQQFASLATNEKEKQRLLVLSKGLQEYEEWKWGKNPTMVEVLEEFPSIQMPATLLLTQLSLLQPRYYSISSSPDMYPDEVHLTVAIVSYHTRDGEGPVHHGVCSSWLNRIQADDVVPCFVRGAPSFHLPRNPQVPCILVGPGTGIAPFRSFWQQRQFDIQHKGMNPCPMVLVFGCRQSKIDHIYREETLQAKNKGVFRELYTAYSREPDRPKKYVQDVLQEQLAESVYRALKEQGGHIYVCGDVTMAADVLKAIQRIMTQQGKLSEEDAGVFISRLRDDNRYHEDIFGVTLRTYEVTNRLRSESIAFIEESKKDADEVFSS

[9] = target: Beta-2 adrenergic receptor (Homo sapiens, UniProt P07550); experiment: DRUGMATRIX: Adrenergic beta2 radioligand binding (ligand: [3H] CGP-12177); type: cell membranes, Membrane; details: cho; Not Active = under 50% inhibition at 10 µM
Chain of Beta-2 adrenergic receptor (P07550 whole entry): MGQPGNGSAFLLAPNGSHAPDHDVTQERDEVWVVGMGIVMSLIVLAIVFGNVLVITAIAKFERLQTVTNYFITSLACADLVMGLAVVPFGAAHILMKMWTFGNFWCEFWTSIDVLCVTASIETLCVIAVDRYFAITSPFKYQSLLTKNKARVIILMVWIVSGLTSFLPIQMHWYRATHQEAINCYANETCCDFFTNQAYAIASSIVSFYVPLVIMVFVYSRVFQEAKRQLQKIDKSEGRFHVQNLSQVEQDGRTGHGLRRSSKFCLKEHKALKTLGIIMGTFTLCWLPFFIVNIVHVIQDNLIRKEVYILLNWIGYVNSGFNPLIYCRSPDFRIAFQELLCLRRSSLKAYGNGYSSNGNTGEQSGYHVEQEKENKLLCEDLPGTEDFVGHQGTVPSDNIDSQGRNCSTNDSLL

[10] = DRUGMATRIX: Potassium Channel [KATP] radioligand binding (ligand: [3H] Glyburide); type: cell membranes, Membrane; details: hit-t15; Not Active = under 50% inhibition at 10 µM
[11] = target: T3, Nitric oxide synthase, inducible (Mus musculus, UniProt P29477); design: species or system Escherichia coli
T3 sequence (P29477 whole entry): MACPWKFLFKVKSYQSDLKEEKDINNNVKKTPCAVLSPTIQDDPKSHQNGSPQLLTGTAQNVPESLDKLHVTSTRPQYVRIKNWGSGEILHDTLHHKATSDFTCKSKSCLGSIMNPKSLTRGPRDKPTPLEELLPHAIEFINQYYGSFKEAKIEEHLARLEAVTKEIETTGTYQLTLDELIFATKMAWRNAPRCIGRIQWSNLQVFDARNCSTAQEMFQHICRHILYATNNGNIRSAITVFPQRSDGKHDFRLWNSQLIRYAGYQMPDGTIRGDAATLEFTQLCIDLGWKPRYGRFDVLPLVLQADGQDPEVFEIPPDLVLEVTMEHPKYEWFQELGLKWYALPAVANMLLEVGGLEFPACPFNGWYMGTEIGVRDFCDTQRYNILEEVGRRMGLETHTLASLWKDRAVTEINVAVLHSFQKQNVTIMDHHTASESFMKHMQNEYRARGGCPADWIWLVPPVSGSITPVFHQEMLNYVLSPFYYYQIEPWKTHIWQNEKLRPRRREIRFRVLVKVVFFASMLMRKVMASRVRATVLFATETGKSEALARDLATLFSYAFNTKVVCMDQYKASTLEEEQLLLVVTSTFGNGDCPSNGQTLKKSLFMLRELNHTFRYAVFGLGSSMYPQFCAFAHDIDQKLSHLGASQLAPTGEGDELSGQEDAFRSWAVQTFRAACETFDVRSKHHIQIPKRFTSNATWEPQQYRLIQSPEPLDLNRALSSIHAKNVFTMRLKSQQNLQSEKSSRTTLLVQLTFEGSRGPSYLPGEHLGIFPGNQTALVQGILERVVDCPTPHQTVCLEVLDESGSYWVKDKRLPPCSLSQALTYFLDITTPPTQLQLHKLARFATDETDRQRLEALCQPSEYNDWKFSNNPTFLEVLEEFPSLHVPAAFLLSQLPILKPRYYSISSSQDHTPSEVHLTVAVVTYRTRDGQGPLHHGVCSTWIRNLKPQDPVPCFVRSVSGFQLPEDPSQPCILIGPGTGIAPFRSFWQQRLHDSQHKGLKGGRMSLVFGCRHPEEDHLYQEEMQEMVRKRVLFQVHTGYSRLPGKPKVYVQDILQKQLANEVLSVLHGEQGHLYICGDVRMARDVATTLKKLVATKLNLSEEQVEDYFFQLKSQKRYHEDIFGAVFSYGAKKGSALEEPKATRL

COCCCOc1ccnc(C[S+]([O-])c2nc3ccccc3[nH]2)c1C (stereo not given) [RABEPRAZOLE]
Not Active: IC50 [1] | Ki [1] | IC50 [2] | IC50 [3] | IC50 [4] | IC50 [5] | Ki [5] | IC50 [6] | IC50 [7] | Ki [7] | IC50 [8] | IC50 [9] | IC50 [10] | Ki [10] | IC50 [11]

CNC(=C[N+](=O)[O-])NCCSCc1ccc(CN(C)C)o1 [RANITIDINE]
Not Active: IC50 [1] | Ki [1] | IC50 [2] | IC50 [3] | IC50 [4] | IC50 [5] | Ki [5] | IC50 [6] | IC50 [7] | Ki [7] | IC50 [8] | IC50 [9] | IC50 [10] | Ki [10] | IC50 [11]

CO[C@H]1/C=C/O[C@@]2(C)Oc3c(C)c(O)c4c(c3C2=O)C2=NC3(CCN(CC(C)C)CC3)NC2=C(NC(=O)/C(C)=C\C=C\[C@H](C)[C@H](O)[C@@H](C)[C@@H](O)[C@@H](C)[C@H](OC(C)=O)[C@@H]1C)C4=O [RIFABUTIN]
Not Active: IC50 [1] | Ki [1] | IC50 [2] | IC50 [3] | IC50 [4] | IC50 [5] | Ki [5] | IC50 [6] | IC50 [7] | Ki [7] | IC50 [8] | IC50 [9] | IC50 [10] | Ki [10] | IC50 [11]

CC(C)CC(N(C)C)C1(c2ccc(Cl)cc2)CCC1 (stereo not given) [SIBUTRAMINE]
Not Active: IC50 [1] | Ki [1] | IC50 [2] | IC50 [3] | IC50 [4] | IC50 [5] | Ki [5] | IC50 [6] | IC50 [7] | Ki [7] | IC50 [8] | IC50 [9] | IC50 [10] | Ki [10] | IC50 [11]

[H]/N=C(/N)N[C@H]1[C@H](O)[C@@H](O)[C@H](O[C@@H]2O[C@@H](C)[C@](O)(C=O)[C@H]2O[C@@H]2O[C@@H](CO)[C@H](O)[C@@H](O)[C@@H]2NC)[C@@H](N/C(N)=N\[H])[C@@H]1O [STREPTOMYCIN]
Not Active: IC50 [1] | Ki [1] | IC50 [2] | IC50 [3] | IC50 [4] | IC50 [5] | Ki [5] | IC50 [6] | IC50 [7] | Ki [7] | IC50 [8] | IC50 [9] | IC50 [10] | Ki [10] | IC50 [11]

COc1cc(NS(=O)(=O)c2ccc(N)cc2)nc(OC)n1 [SULFADIMETHOXINE]
Not Active: IC50 [1] | Ki [1] | IC50 [2] | IC50 [3] | IC50 [4] | IC50 [5] | Ki [5] | IC50 [6] | IC50 [7] | Ki [7] | IC50 [8] | IC50 [9] | IC50 [10] | Ki [10] | IC50 [11]

Cc1cc(C)nc(NS(=O)(=O)c2ccc(N)cc2)n1 [SULFAMETHAZINE]
Not Active: IC50 [1] | Ki [1] | IC50 [2] | IC50 [3] | IC50 [4] | IC50 [5] | Ki [5] | IC50 [6] | IC50 [7] | Ki [7] | IC50 [8] | IC50 [9] | IC50 [10] | Ki [10] | IC50 [11]

C[C@]1(Cn2ccnn2)[C@H](C(=O)O)N2C(=O)C[C@H]2S1(=O)=O [TAZOBACTAM]
Not Active: IC50 [1] | Ki [1] | IC50 [2] | IC50 [3] | IC50 [4] | IC50 [5] | Ki [5] | IC50 [6] | IC50 [7] | Ki [7] | IC50 [8] | IC50 [9] | IC50 [10] | Ki [10] | IC50 [11]

CN1C(C(=O)Nc2ccccn2)=C(O)c2sccc2S1(=O)=O [TENOXICAM]
Not Active: IC50 [1] | Ki [1] | IC50 [2] | IC50 [3] | IC50 [4] | IC50 [5] | Ki [5] | IC50 [6] | IC50 [7] | Ki [7] | IC50 [8] | IC50 [9] | IC50 [10] | Ki [10] | IC50 [11]

O=C1CCC(N2C(=O)c3ccccc3C2=O)C(=O)N1 (stereo not given) [THALIDOMIDE]
Not Active: IC50 [1] | Ki [1] | IC50 [2] | IC50 [3] | IC50 [4] | IC50 [5] | Ki [5] | IC50 [6] | IC50 [7] | Ki [7] | IC50 [8] | IC50 [9] | IC50 [10] | Ki [10] | IC50 [11]

Cc1cccc(Nc2ccncc2S(=O)(=O)NC(=O)NC(C)C)c1 [TORSEMIDE]
Not Active: IC50 [1] | Ki [1] | IC50 [2] | IC50 [3] | IC50 [4] | IC50 [5] | Ki [5] | IC50 [6] | IC50 [7] | Ki [7] | IC50 [8] | IC50 [9] | IC50 [10] | Ki [10] | IC50 [11]

CC(C)C[C@H](NC(=O)[C@@H](O)[C@H](N)Cc1ccccc1)C(=O)O [UBENIMEX]
Not Active: IC50 [1] | Ki [1] | IC50 [2] | IC50 [3] | IC50 [4] | IC50 [5] | Ki [5] | IC50 [6] | IC50 [7] | Ki [7] | IC50 [8] | IC50 [9] | IC50 [10] | Ki [10] | IC50 [11]

Cc1onc(-c2ccccc2)c1-c1ccc(S(N)(=O)=O)cc1 [VALDECOXIB]
Not Active: IC50 [1] | Ki [1] | IC50 [2] | IC50 [3] | IC50 [4] | IC50 [5] | Ki [5] | IC50 [6] | IC50 [7] | Ki [7] | IC50 [8] | IC50 [9] | IC50 [10] | Ki [10] | IC50 [11]
